{"source": "patent US9499584B2", "about": "“GPCR with improved cell surface expression” (CANVAX BIOTECH S.L, priority 2012, dated 2016)", "key": {"RBL-2H3": {"tested_on": "RBL-2H3", "assay": "Influence of VGS mutations on surface expression of human HTR1B in RBL-2H3 cells, flow cytometry after magnetic bead separation (Example 4)", "format": "cell-based", "details": "for Median fluorescence intensity of positive cells, x-median (range) / Percentage of positive cells after selection (range): human HTR1B, MoMLV5′LTR promoter, RBL-2H3, triplicate; for Percentage of positive cells after selection (range): magnetic bead separated", "source_text": "Vectors were developed for stable expression of human HTR1B without the methionine at position 1 in mammalian cells under the control of Moloney Leukaemia virus 5′-LTR promoter (MoMLV5′LTR, SEQ ID NO: 6). All vectors had the neomycin resistance gene for selection of stable eukaryotic cells and mouse immunoglobulin kappa signal peptide followed by a c-myc tag (EQKLISEEDLN peptide). Vectors included no VGS, native VGS or two VGS mutants (VGS mutant 1 and VGS mutant 2). This experiment was designed to test if serine and threonine at VGS which represent potential […] glycosylation sites are the molecular determinants of improved surface expression. In VGS mutant 1 all 5 serine and threonine were mutated to alanine while in VGS mutant 2 all serine were mutated and 2 threonines were still present.\nEach vector was individually electroporated by triplicate using a microporator (Digital Bio Technology, South Korea) into RBL-2H3 and after 48 hours neomycin at 500 ug/mL was added to culture for selection. After selection for about 2 weeks cells were analysed by flow cytometry (Guava Technologies, USA) with anti-cmyc tag antibody (anti-cmyc-FITC, clone 9E10, Sigma-Aldrich, USA) for surface expression. Selected cells were separated by using magnetic beads from Miltenyi and anti-cmyc tag. Results were expressed as percentage of positive cells after subtraction of values from non transfected RBL-2H3 cells incubated with the same anti-cmyc tag antibody. For positive cells median fluorescence intensity (x-median) was taken as a marker of surface receptor density on the surface of positive cells."}, "HEK293 cells": {"tested_on": "HEK293 cells", "assay": "Surface expression of human HTR1B in stably transfected HEK293 cells, flow cytometry with anti-cmyc tag antibody (Example 3)", "format": "cell-based", "details": "HEK293, MoMLV5′LTR promoter", "source_text": "Vectors were developed for stable expression of GPCRs in mammalian cells under the control of the following promoters: Moloney Leukaemia virus 5′-LTR (MoMLV5′LTR, SEQ ID NO: 6), human phosphoglycerate kinase promoter (SEQ ID NO: 4) and human elongation factor 1 alpha promoter (hEF1alpha, SEQ ID NO: 3). All vectors had the neomycin resistance gene for selection of stable eukaryotic cells, mouse immunoglobulin kappa signal peptide followed by a c-myc tag (EQKLISEEDLN peptide), a sequence derived from a heterologous viral-GPCR (VGS, SEQ ID NO: 2) and the entire human HTR1B without the methionine at position 1. Such heterologous viral-GPCR derived sequence was included to test if surface expression is improved by certain heterologous viral-GPCR derived sequences in non-hematopoietic cell lines. […] After selection for about 2 weeks cells were analysed by flow cytometry (Guava Technologies, USA) with anti-cmyc tag antibody (anti-cmyc-FITC, clone 9E10, Sigma-Aldrich, USA) for surface expression. Results were expressed as percentage of positive cells after subtraction of values from non transfected HEK293 cells incubated with the same anti-cmyc tag antibody. […] For positive cells mean fluorescence intensity (MFI) was taken as a marker of surface receptor density on the surface of positive cells."}, "WEHI-3B": {"tested_on": "WEHI-3B", "assay": "Surface expression of HT1BR in stably transfected WEHI-3B cells, flow cytometry with anti-cmyc tag antibody (Example 2)", "format": "cell-based, mouse", "source_text": "(§1) Vectors were developed for stable expression of GPCRs in hematopoietic cells without professional regulated exocytosis under the control of Moloney Leukaemia virus 5′-LTR (MoMLV5′LTR, SEQ ID NO: 6), a good promoter for expression of GPCRs tested previously for more than 20 different GPCRs. The vector had neomycin resistance gene for selection of stable eukaryotic cells, mouse immunoglobulin kappa signal peptide followed by a c-myc tag (EQKLISEEDLN peptide) and the entire HT1BR GPCR without the methionine at position 1. This GPCR is a prototype of a receptor that it is difficult to be expressed into RBL-2H3. Two vectors were developed: one with a heterologous viral-GPCR derived sequence (VGS) and one without VGS. Each vector was individually electroporated using a microporator (Digital Bio Technology, South Korea) into WEHI-3B, a mouse myelomonocytic leukaemia cell line (DSMZ, ACC26) and into BW5147.G.1.4.ovar.1, a mouse lymphoma T cell line (HPA cultures, Cat. No. 88100507) and after 48 hours neomycin was added to culture for selection. After selection for about 2 weeks cells were analysed by flow cytometry (Guava Technologies, USA) with anti-cmyc tag antibody (anti-cmyc-FITC, clone 9E10, Sigma-Aldrich, USA) for surface expression."}, "BW5147.G.1.4.ovar.1": {"tested_on": "BW5147.G.1.4.ovar.1", "assay": "Surface expression of HT1BR in stably transfected BW5147 cells, flow cytometry with anti-cmyc tag antibody (Example 2)", "format": "cell-based, mouse", "details": "MoMLV5′LTR promoter", "source_text": "as §1"}}, "data": [{"substance": "LAAMAPGAAVGA [VGS mutant 1, all 5 serine and threonine mutated to alanine]", "values": [{"measurement": "Median fluorescence intensity of positive cells, x-median (range)", "setting": "RBL-2H3", "result": "45.6 (44.9-46.2)"}, {"measurement": "Percentage of positive cells after selection (range)", "setting": "RBL-2H3", "result": "49.1 (47.5-50.7) %"}]}, {"substance": "LAAMAPGATVGT [VGS mutant 2, all serine mutated, 2 threonines still present]", "values": [{"measurement": "Reduction of median fluorescence intensity versus native VGS", "setting": "RBL-2H3; RBL-2H3, MoMLV5′LTR promoter", "result": 1.43, "unit": "fold"}, {"measurement": "Percentage of positive cells after selection (range)", "setting": "RBL-2H3", "result": "49.2 (48.2-50.2) %"}]}, {"substance": "LSTMAPGSTVGT [VGS native]", "values": [{"measurement": "Increase of median fluorescence intensity of positive cells versus no VGS", "setting": "RBL-2H3; RBL-2H3, MoMLV5′LTR promoter", "result": 2.6, "unit": "fold"}, {"measurement": "Median fluorescence intensity of positive cells, x-median (range)", "setting": "RBL-2H3", "result": "89.3 (87.7-90.9)"}, {"measurement": "Percentage of positive cells after selection (range)", "setting": "RBL-2H3", "result": "50.2 (49.2-51.1) %"}, {"measurement": "Percentage of positive cells after selection (range)", "setting": "RBL-2H3; listed as native VGS", "result": 50, "unit": "%"}, {"measurement": "Median fluorescence intensity of positive cells, x-median (range)", "setting": "RBL-2H3; listed as native VGS", "result": 89.3}]}, {"substance": "VGS: Heterologous viral-GPCR derived sequence (VGS, SEQ ID NO: 2) added at the amino terminus of the GPCR (CTGAGCACAATGGCCCCAGGCTCCACCGTGGGAACA; expressed or natural sequence)", "values": [{"measurement": "Improvement of percentage of positive cells by inclusion of VGS", "setting": "HEK293 cells", "result": 2.7, "unit": "fold"}, {"measurement": "Percentage of positive cells after selection", "setting": "WEHI-3B; HT1BR, WEHI 3B cells, about 2 weeks neomycin selection", "result": "about 50%"}, {"measurement": "Ratio of percentage of positive cells with VGS versus without", "setting": "WEHI-3B; WEHI-3B cells, MoMLV5′LTR promoter", "result": 1.6, "unit": "times"}, {"measurement": "Ratio of percentage of cells with surface expression with VGS versus without", "setting": "BW5147.G.1.4.ovar.1", "result": "about 15 times"}]}]}
